Assay results reported in the supplement of paper PMC10307832.

What was measured:
Assay in all cases: relative viability (nuclei count vs DMSO), 5 days (fraction); higher = more cells survive
[1] = compound: C1/C(=C\C2=CC=CS2)/C(=O)/C(=C/C3=CC=CS3)/C1 + COc1cccc2cc(-c3nc([C@H]4CC[C@H](C(=O)O)CC4)n4ncnc(N)c34)[nH]c12 [OSI-027] (partner 0.5 µM)
Procedure, shortened: (§1)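 Lung cancer cell lines in 1536-well plates were dosed by pin tool the day after seeding, either with one drug alone or with a fixed anchor-drug dose plus five library-drug doses (not always all listed) in √10 steps. After 5 days, cells were fixed and their nuclei stained in one step (final 0.05% Triton X-100, 1% formaldehyde, 1 ug/ml Hoechst), then counted on 4× images. Relative viability is the nuclei count in treated wells divided by that in vehicle wells. Values are medians of duplicate plates.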

TPCA-1 + Tozasertib = compound: C1=CC(=CC=C1C2=CC(=C(S2)NC(=O)N)C(=O)N)F [TPCA-1] + Cc1cc(Nc2cc(N3CCN(C)CC3)nc(Sc3ccc(NC(=O)C4CC4)cc3)n2)n[nH]1 [Tozasertib] (partner 0.1 µM)
Procedure, shortened: as §1

[2] = compound: C[C@]12O[C@H](C[C@]1(O)CO)n1c3ccccc3c3c4c(c5c6ccccc6n2c5c31)CNC4=O [Lestaurtinib] + O=C(CCCCCCC(=O)Nc1ccccc1)NO [Vorinostat] (partner 1 µM)
Procedure, shortened: as §1

[3] = compound: C[C@]12O[C@H](C[C@]1(O)CO)n1c3ccccc3c3c4c(c5c6ccccc6n2c5c31)CNC4=O [Lestaurtinib] + C[C@@H](Oc1cc(-c2cnn(C3CCNCC3)c2)cnc1N)c1c(Cl)ccc(F)c1Cl [Crizotinib] (partner 1 µM)
Procedure, shortened: as §1

Cell Line	relative viability ([1]; first compound 0.2 µM)	relative viability ([1]; first compound 0.6325 µM)	relative viability ([1]; first compound 2 µM)	relative viability ([1]; first compound 6.325 µM)	relative viability ([1]; first compound 20 µM)	relative viability (TPCA-1 + Tozasertib; first compound 0.04 µM)	relative viability (TPCA-1 + Tozasertib; first compound 0.1265 µM)	relative viability (TPCA-1 + Tozasertib; first compound 0.4 µM)	relative viability (TPCA-1 + Tozasertib; first compound 1.265 µM)	relative viability (TPCA-1 + Tozasertib; first compound 4 µM)	relative viability ([2]; first compound 0.005 µM)	relative viability ([2]; first compound 0.01581 µM)	relative viability ([2]; first compound 0.05 µM)	relative viability ([2]; first compound 0.1581 µM)	relative viability ([2]; first compound 0.5 µM)	relative viability ([3]; first compound 0.005 µM)	relative viability ([3]; first compound 0.01581 µM)	relative viability ([3]; first compound 0.05 µM)	relative viability ([3]; first compound 0.1581 µM)	relative viability ([3]; first compound 0.5 µM)
SW 900	0.63	0.492	0.612	0.531	0.796	0.612	0.556	0.56	0.485	0.245	0.376	0.69	0.59	0.632	0.65					
NCI-H1944	0.464	0.409	0.464	0.408	0.425	0.239	0.252	0.239	0.247	0.208	0.556	0.521	0.693	0.408	0.205	1.13	1.28	0.745	0.695	0.362
NCI-H727	0.716	0.58	0.975	0.592	0.582	0.558	0.719	0.693	0.661	0.492	1.23	1.35	1.17		0.625	1.26	0.911	0.718	0.613	0.323
NCI-H1650	0.727	0.713	0.743	0.544	0.733	0.386		0.459	0.339	0.257	0.667	0.528	0.784	0.54	0.491	0.901	1.13	0.841	1.29	0.308
HCC-827	0.813	0.767	0.809	0.737	0.695	0.472	0.42	0.389	0.443	0.272	0.817	0.961	0.869	0.924	0.244	0.911	1.08	0.85	0.71	0.335
HCC-366	1.13	1.01	1.11	0.744	0.836	0.107	0.135	0.0742	0.0631	0.0314	0.351	0.469	0.335	0.317	0.19	0.711	0.649	0.418	0.758	0.219
HARA	0.525	0.437	0.502	0.379	0.57	0.136	0.118	0.0913	0.0917	0.0916	0.559	0.648	0.53	0.311	0.104	1.19	1.21	0.86	0.994	0.162
NCI-H322M	0.559	0.658	0.652	0.564	0.516	0.523	0.464	0.462	0.416	0.303	0.764	0.935		0.701	0.461	0.931	0.919	0.495	0.482	0.41
LXF-289	0.869	0.811	0.852	0.696	0.729	0.248	0.203	0.201	0.169	0.122	0.64	0.741	0.75	0.472	0.184	0.791	0.815	0.568	0.798	0.183
PC-3 [JPC-3]	0.774	0.715	0.719	0.552	0.778	0.869	0.874	0.892	0.848	0.545	0.644	1.15	0.866	0.816	0.469	0.975	1.15	1.01	1.15	0.693
CAL-12T	0.64	0.886	0.709	0.335	0.547	0.327	0.299	0.257	0.236	0.206	0.793	0.881	0.622	0.484	0.241	0.555	0.747	0.409	0.487	0.272
COR-L 105	0.679	0.849	0.781		0.632	0.398	0.355	0.309	0.349	0.335	0.949	0.676	0.678	0.445	0.402	0.703	1.02	0.684	0.618	0.233
NCI-H2347	0.482	0.391	0.429		0.389	0.527	0.52	0.454	0.599	0.336	0.508	0.643	0.555	0.469	0.503	0.715	0.854	0.71	0.585	0.545
NCI-H2126	0.74	0.645	0.711	0.598	0.774	0.877	0.768	0.886	0.829	0.338	0.805	0.886	0.693	0.599	0.465	1.06	1.1	0.835	0.973	0.682
NCI-H838	0.412	0.38	0.409	0.491	0.365	0.257	0.232	0.249	0.217	0.223	0.792	0.724	0.681	0.333	0.172	0.78	0.803	0.71	0.465	0.158
A549																0.77	0.771	0.227	0.183	0.0593
NCI-H2342	0.626	0.644	0.741	0.52	0.607	0.437	0.438	0.499	0.617	0.391	0.776	0.767	0.752	0.915	0.743					
NCI-H1623	0.455	0.465	0.445	0.434	0.405	0.408	0.402	0.454	0.437	0.37										
SK-LU-1	0.36	0.388	0.398	0.315	0.396	0.333	0.297	0.309	0.253	0.248	0.668	0.667	0.491	0.415	0.277	0.663	0.915	0.433	0.516	0.312
NCI-H2085	0.884	1.04	0.754	0.685	0.678	0.863	0.72	0.746	0.735	0.479	0.741	0.812	0.869	0.751	0.661	0.904	0.856	0.748	0.884	0.692

Cell Line	relative viability ([1]; first compound 0.2 µM)	relative viability ([1]; first compound 0.6325 µM)	relative viability ([1]; first compound 2 µM)	relative viability ([1]; first compound 6.325 µM)	relative viability ([1]; first compound 20 µM)	relative viability (TPCA-1 + Tozasertib; first compound 0.04 µM)	relative viability (TPCA-1 + Tozasertib; first compound 0.1265 µM)	relative viability (TPCA-1 + Tozasertib; first compound 0.4 µM)	relative viability (TPCA-1 + Tozasertib; first compound 1.265 µM)	relative viability (TPCA-1 + Tozasertib; first compound 4 µM)	relative viability ([2]; first compound 0.005 µM)	relative viability ([2]; first compound 0.01581 µM)	relative viability ([2]; first compound 0.05 µM)	relative viability ([2]; first compound 0.1581 µM)	relative viability ([2]; first compound 0.5 µM)	relative viability ([3]; first compound 0.005 µM)	relative viability ([3]; first compound 0.01581 µM)	relative viability ([3]; first compound 0.05 µM)	relative viability ([3]; first compound 0.1581 µM)	relative viability ([3]; first compound 0.5 µM)
NCI-H460	0.743	0.81	0.747	0.515	0.605	0.473	0.69	0.419	0.448	0.0397	1	1.01	0.653	1.1	0.503	1.16	0.905	0.448	0.676	0.516
Calu-6																0.753	0.784	0.282	0.293	0.16
RERF-LC-KJ	0.528	0.659	0.71	0.539	0.545	0.556	0.518	0.61	0.43	0.29	0.56	0.683	0.538	0.588	0.375	0.856	0.969	0.674	0.799	0.6
LCLC-103H	0.466	0.464	0.603	0.502	0.426	0.488	0.405	0.515	0.513	0.321	0.783	0.83	0.646	0.5	0.395	1.11	1.02	0.867	0.761	0.593
HCC-15	0.769	0.684	0.683	0.548	0.665	0.413	0.438	0.338	0.276	0.15	0.88	0.983	0.701	0.446	0.205	1.04	1.01	0.595	0.628	0.291
H3255	0.585	0.589	0.541	0.568	0.566	0.612	0.6	0.623	0.58	1.03	0.769	0.928	0.752	0.651	0.402	0.879	0.988	0.825	0.649	0.461
NCI-H1792	0.84	0.619	0.754	0.694	0.67											0.901	1.18	0.49	0.799	0.476
NCI-H1563	0.774	0.787	0.717	0.729	0.773											0.913	0.921	0.837	0.907	0.794
NCI-H596	0.76	0.781	1.01	0.699	0.794	0.834	0.689	0.916	0.86	0.759	0.539	0.746	0.718	0.645	0.795	0.851	1.05	0.805	1.02	0.923
NCI-H2087	0.716	0.688	0.769	0.457	0.42	0.243	0.239	0.28	0.2	0.116	0.815	0.652	0.667	0.474	0.373	1.07	0.789	1.04	0.746	0.253
NCI-H661	0.766	0.753	0.736	0.664	0.735	0.376	0.349	0.366	0.345	0.339	0.873	0.669	0.525	0.4	0.339	1.01	0.84	0.97	0.927	0.676
NCI-H522	0.793	0.715	0.841	0.518	0.727	0.562	0.589	0.586	0.578	0.553	0.964	1.13	0.895	0.785	0.474					
NCI-H1299																0.912	0.953	0.542	0.68	0.467
NCI-H1648	0.282	0.269	0.307		0.258	0.548	0.355	0.486	0.573	0.379		0.543		0.807	0.29					
EBC-1																0.182	0.225	0.183	0.184	0.175
NCI-H1395	0.672	0.614	0.772	0.597	0.643	0.906	0.69	0.766	0.657	0.61	0.696	0.902	0.607	0.47	0.343					
IA-LM											1.2	1.05	1.02	1.33	0.625	0.862	1.06	1.14	0.921	0.415
NCI-H1703																0.81	0.524	0.263	0.257	0.0934
NCI-H1793	0.333	0.303	0.322	0.202	0.31	0.33		0.307	0.235	0.165	0.531	0.884	0.561	0.524	0.252					
